Data from ChEMBL document CHEMBL3046696, “QSAR analysis of caffeoyl naphthalene sulfonamide derivatives as HIV-1 integrase inhibitors” (Med Chem Res, 2006).

Experiment: physchem
Conditions: octanol/water
Description: Octanol-water partition coefficient, log P of the compound

Compound | logP
CC(=O)Oc1ccc(/C=C/C(=O)Nc2cccc3c(S(=O)(=O)Nc4ccccc4C)cccc23)cc1OC(C)=O | 4.18
O=C(/C=C/c1ccc(O)c(O)c1)Nc1cccc2c(S(=O)(=O)Nc3ccc(Cl)cc3)cccc12 | 3.71
O=C(/C=C/c1ccc(O)c(O)c1)Nc1cccc2c(S(=O)(=O)Nc3ccc(Br)cc3)cccc12 | 4.14
Cc1ccc(NS(=O)(=O)c2cccc3c(NC(=O)/C=C/c4ccc(O)c(O)c4)cccc23)cc1 | 4.13
O=C(/C=C/c1ccc(O)c(O)c1)Nc1cccc2c(S(=O)(=O)Nc3cccc([N+](=O)[O-])c3)cccc12 | 4.57
Cc1ccccc1NS(=O)(=O)c1cccc2c(NC(=O)/C=C/c3ccc(O)c(O)c3)cccc12 | 4.6
Cc1cccc(NS(=O)(=O)c2cccc3c(NC(=O)/C=C/c4ccc(O)c(O)c4)cccc23)c1C | 5.03
CC(=O)Oc1ccc(/C=C/C(=O)Nc2cccc3c(S(=O)(=O)Nc4cccc(C(C)C)c4)cccc23)cc1OC(C)=O | 4.86
CC(=O)Oc1ccc(/C=C/C(=O)Nc2cccc3c(S(=O)(=O)Nc4ccc(C(C)C)cc4)cccc23)cc1OC(C)=O | 4.86
CCCCc1cc(NC(=O)/C=C/c2ccc(OC(C)=O)c(OC(C)=O)c2)c2cccc(S(=O)(=O)Nc3ccccc3)c2c1 | 5.32
CCCCN(c1ccc(F)cc1)S(=O)(=O)c1cccc2c(NC(=O)/C=C/c3ccc(OC(C)=O)c(OC(C)=O)c3)cccc12 | 5.12
CC(=O)Oc1ccc(/C=C/C(=O)Nc2cccc3c(S(=O)(=O)Nc4ccc(C(F)(F)F)cc4)cccc23)cc1OC(C)=O | 4.55
CC(=O)Oc1ccc(/C=C/C(=O)Nc2cccc3c(S(=O)(=O)Nc4ccccc4C(F)(F)F)cccc23)cc1OC(C)=O | 4.55
CC(=O)Oc1ccc(/C=C/C(=O)N(c2cccc3c(S(=O)(=O)Nc4ccccc4)cccc23)C(F)(F)F)cc1OC(C)=O | 5.66
CCc1ccc(N(C(=O)/C=C/c2ccc(OC(C)=O)c(OC(C)=O)c2)c2cc(C(F)(F)F)cc3c(S(=O)(=O)Nc4ccc(S(=O)(=O)CC)cc4)cccc23)cc1 | 7.34
CC(=O)Oc1ccc(/C=C/C(=O)N(c2cccc3c(S(=O)(=O)Nc4cccc(C(F)(F)F)c4)cccc23)C(F)(F)F)cc1OC(C)=O | 6.54
CC(=O)Oc1ccc(/C=C/C(=O)N(c2cccc3c(S(=O)(=O)Nc4ccc(C(F)(F)F)cc4)cccc23)C(F)(F)F)cc1OC(C)=O | 6.54
CC(=O)Oc1ccc(/C=C/C(=O)Nc2cccc3c(S(=O)(=O)Nc4ccc(SC(F)(F)F)cc4)cccc23)cc1OC(C)=O | 5.5
CC(=O)Oc1ccc(/C=C/C(=O)Nc2cccc3c(S(=O)(=O)Nc4ccc(S(=O)(=O)C(F)(F)F)cc4)cccc23)cc1OC(C)=O | 4.55
CC(=O)Oc1ccc(/C=C/C(=O)N(SC(F)(F)F)c2cccc3c(S(=O)(=O)Nc4ccc(S(=O)(=O)C(F)(F)F)cc4)cccc23)cc1OC(C)=O | 7.16
CC(=O)Oc1ccc(/C=C/C(=O)N(c2cccc3c(S(=O)(=O)Nc4ccc(SC(F)(F)F)cc4)cccc23)S(=O)(=O)C(F)(F)F)cc1OC(C)=O | 7.16
CCS(=O)(=O)c1ccc(NS(=O)(=O)c2cccc3c(N(C(=O)/C=C/c4ccc(OC(C)=O)c(OC(C)=O)c4)S(=O)(=O)C(F)(F)F)cccc23)cc1 | 4.81
CCS(=O)(=O)c1ccc(NS(=O)(=O)c2cccc3c(NC(=O)/C=C/c4ccc(OC(C)=O)c(OC(C)=O)c4)cccc23)cc1 | 3.15
CCS(=O)(=O)c1cc(NC(=O)/C=C/c2ccc(OC(C)=O)c(OC(C)=O)c2)c2cccc(S(=O)(=O)Nc3ccccc3)c2c1 | 3.15

Compound | logP
CCS(=O)(=O)N(C(=O)/C=C/c1ccc(OC(C)=O)c(OC(C)=O)c1)c1cccc2c(S(=O)(=O)Nc3ccccc3)cccc12 | 3.92
CC(=O)Oc1ccc(/C=C/C(=O)N(c2cccc3c(S(=O)(=O)Nc4ccc(S(=O)(=O)C(F)(F)F)cc4)cccc23)C(F)(F)F)cc1OC(C)=O | 6.03
CC(=O)Oc1ccc(/C=C/C(=O)Nc2cccc3c(S(=O)(=O)Nc4ccccc4)cccc23)cc1OC(C)=O | 3.66
CC(=O)Oc1ccc(/C=C/C(=O)Nc2cccc3c(S(=O)(=O)NCc4ccccc4)cccc23)cc1OC(C)=O | 4.1
CC(=O)Oc1ccc(/C=C/C(=O)Nc2cccc3c(S(=O)(=O)NCCc4ccccc4)cccc23)cc1OC(C)=O | 3.76
CC(=O)Oc1ccc(/C=C/C(=O)Nc2cccc3c(S(=O)(=O)Nc4ccc(F)cc4)cccc23)cc1OC(C)=O | 4.19
CC(=O)Oc1ccc(/C=C/C(=O)Nc2cccc3c(S(=O)(=O)Nc4ccc(Cl)cc4)cccc23)cc1OC(C)=O | 4.01
CC(=O)Oc1ccc(/C=C/C(=O)Nc2cccc3c(S(=O)(=O)Nc4ccc(Br)cc4)cccc23)cc1OC(C)=O | 4.44
CC(=O)Oc1ccc(/C=C/C(=O)Nc2cccc3c(S(=O)(=O)Nc4ccc(C)cc4)cccc23)cc1OC(C)=O | 3.8
CC(=O)Oc1ccc(/C=C/C(=O)Nc2cccc3c(S(=O)(=O)Nc4cccc([N+](=O)[O-])c4)cccc23)cc1OC(C)=O | 4.24
CC(=O)Oc1ccc(/C=C/C(=O)Nc2cccc3c(S(=O)(=O)Nc4cccc(C)c4C)cccc23)cc1OC(C)=O | 4.62
O=C(/C=C/c1ccc(O)c(O)c1)Nc1cccc2c(S(=O)(=O)Nc3ccccc3)cccc12 | 4.46
O=C(/C=C/c1ccc(O)c(O)c1)Nc1cccc2c(S(=O)(=O)NCc3ccccc3)cccc12 | 4.89
O=C(/C=C/c1ccc(O)c(O)c1)Nc1cccc2c(S(=O)(=O)NCCc3ccccc3)cccc12 | 4.13
O=C(/C=C/c1ccc(O)c(O)c1)Nc1cccc2c(S(=O)(=O)Nc3ccc(F)cc3)cccc12 | 4.57
CC(=O)Oc1ccc(/C=C/C(=O)N(c2ccccc2)c2cccc3c(S(=O)(=O)Nc4ccccc4)cccc23)cc1OC(C)=O | 5.59
CCN(c1ccccc1)S(=O)(=O)c1cccc2c(N(C(=O)/C=C/c3ccc(OC(C)=O)c(OC(C)=O)c3)c3ccccc3)cc(C)cc12 | 6.65
CCN(c1ccccc1)S(=O)(=O)c1cccc2c(N(C(=O)/C=C/c3ccc(OC(C)=O)c(OC(C)=O)c3)c3ccccc3)cccc12 | 6.18
CCc1ccccc1NS(=O)(=O)c1cccc2c(NC(=O)/C=C/c3ccc(OC(C)=O)c(OC(C)=O)c3)cccc12 | 4.53
CCc1cccc(NS(=O)(=O)c2cccc3c(NC(=O)/C=C/c4ccc(OC(C)=O)c(OC(C)=O)c4)cccc23)c1 | 4.53
CCc1ccc(NS(=O)(=O)c2cccc3c(NC(=O)/C=C/c4ccc(OC(C)=O)c(OC(C)=O)c4)cccc23)cc1 | 4.53
CCCc1ccccc1NS(=O)(=O)c1cccc2c(NC(=O)/C=C/c3ccc(OC(C)=O)c(OC(C)=O)c3)cccc12 | 4.92
CCCc1cccc(NS(=O)(=O)c2cccc3c(NC(=O)/C=C/c4ccc(OC(C)=O)c(OC(C)=O)c4)cccc23)c1 | 4.92
CC(=O)Oc1ccc(/C=C/C(=O)Nc2cccc3c(S(=O)(=O)Nc4ccccc4C(C)C)cccc23)cc1OC(C)=O | 4.86
